Experimental data reported in patent US9523691B2, “Use of the olfactomedin-4 protein (OLFM4) in colorectal cancer diagnosis” (INSTITUT DE CANCEROLOGIE DE L'OUEST, priority 2011, dated 2016).

Tested on: wild type HCT116 cells
Experiment: Clonogenic cell survival assay, OLFM4 added to the medium with genotoxic treatment
Assay type: cell-based, human
Details: 10 days
Experimental: The influence of OLFM4 following genotoxic treatments in HCT116 OLFM4 inducible cells was evaluated by clonogenic assay. Cells were incubated with 50 ng/ml of doxycyclin, and then 24 hr later treated with oxaliplatin or sn38 at the indicated concentration for 10 days. The colonies were stained with crystal violet and counted by QuantityOne software (Biorad). B. OLFM4 overexpressed in COS7 cells, was added at approximately 3 ng/ml to oxaliplatin and sn38 treatment in the wild type HCT116 cells for 10 days. The colonies were stained and count as above. The histograms shown are representative of three individual experiments.
The human colon adenocarcinoma cell line HCT116 (American Type Culture Collection, ATCC) were maintained in antibiotic-free RPMI 1640 medium (Lonza). Cultures were supplemented with 10% fetal bovine serum. […]
HCT116 stable OLFM4 cells were seeded at 300 cells into 6 well cell culture plates with RPMI 1640 medium supplement with 3% fetal bovine serum and incubated at 37° C. in a 5% CO2 atmosphere. […] The number of colonies exceeding 50 cells was visualized with a Bio-Rad Chemi Doc XRS Imaging device and counted using Quantity One imaging software (Bio-Rad). The survival fraction was determined as the ratio of the number of colonies observed without doxycycline to the number of cells with doxycycline, adjusted to the plating efficiency.

“OLFM4: Secreted N-glycosylated protein of 510 residues, overexpressed in COS7 cells and added to culture medium” was tested, and the “resistance to oxaliplatin (colony survival, clonogenic assay)” value (OLFM4 overexpressed in COS7 cells added at approximately 3 ng/ml to oxaliplatin treatment) was “promotes resistance” and the “resistance to sn38 (colony survival, clonogenic assay)” value (OLFM4 overexpressed in COS7 cells added at approximately 3 ng/ml to sn38 treatment) was “promotes resistance”.
